Assay results taken from article PMC9730589, “Characterization of a novel AA3_1 xylooligosaccharide dehydrogenase from Thermothelomyces myriococcoides CBS 398.93” (Biotechnology for Biofuels and Bioproducts, 2022).

Tested on: T1, TmXdhA
T1 construct: native full gene from cDNA (578 residues, GMC dehydrogenase domain only, no cytochrome or CBM1); ORF start MQTASKL by primer; SEC-purified, contaminated with an A. niger hydrolase (A0A370CB09)
Experiment: spectrophotometric reduction of […],4-benzoquinone at […] nm, Michaelis-Menten fit
Assay type: biochemical, Thermothelomyces myriococcoides
Settings: 1 mM 1,4-benzoquinone, 50 mM ammonium acetate pH 5.5, 30 °C

| SMILES | Km [µM] |
| --- | --- |
| OC1OC[C@@H](O[C@@H]2OC[C@@H](O[C@@H]3OC[C@@H](O[C@@H]4OC[C@@H](O)[C@H](O)[C@H]4O)[C@H](O)[C@H]3O)[C@H](O)[C@H]2O)[C@H](O)[C@H]1O (stereo partly drawn) [X4, Xylotetraose] | 130 ± 10 |
| OC1OC[C@@H](O[C@@H]2OC[C@@H](O)[C@H](O)[C@H]2O)[C@H](O)[C@H]1O (stereo partly drawn) [X2, Xylobiose] | 160 ± 10 |
| OC1OC[C@@H](O[C@@H]2OC[C@@H](O[C@@H]3OC[C@@H](O)[C@H](O)[C@H]3O)[C@H](O)[C@H]2O)[C@H](O)[C@H]1O (stereo partly drawn) [X3, Xylotriose] | 110 ± 10 |

Second part, the compound after the results:

| Km [µM] | SMILES |
| --- | --- |
| 430 ± 40 | OC[C@H]1O[C@@H](O[C@H]2[C@H](O)[C@@H](O)[C@H](O[C@H]3[C@H](O)[C@@H](O)C(O)O[C@@H]3CO)O[C@@H]2CO)[C@H](O)[C@@H](O)[C@@H]1O (stereo partly drawn) [C3, Cellotriose] |
| 530 ± 40 | OC[C@H]1O[C@@H](O[C@H]2[C@H](O)[C@@H](O)[C@H](O[C@H]3[C@H](O)[C@@H](O)[C@H](O[C@H]4[C@H](O)[C@@H](O)C(O)O[C@@H]4CO)O[C@@H]3CO)O[C@@H]2CO)[C@H](O)[C@@H](O)[C@@H]1O (stereo partly drawn) [C4, Cellotetraose] |
| 360 ± 40 | OC[C@H]1O[C@@H](O[C@H]2[C@H](O)[C@@H](O)C(O)O[C@@H]2CO)[C@H](O)[C@@H](O)[C@@H]1O (stereo partly drawn) [C2, Cellobiose] |
